The record followed here is PMC5706701, “Development of a homogenous high-throughput assay for inositol hexakisphosphate kinase 1 activity” (PLoS ONE, 2017).

Where a name gives a salt, the structure may show the parent alone.

The target in this assay is T1, Human IP6K1 (Homo sapiens, UniProt Q92551).
T1 construct: GST (N, cleaved yes); made in house; host or cells: C43 E. coli, pGEX-6P-2
Briefly: IP6K1 high-throughput screen of the Sigma LOPAC (ADP-Glo Max, single point).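 Note: final compound concentration 10µM in 5% DMSO.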 In kind it is biochemical.

The mark [1] stands for this setting: LOPAC single-point screen, ADP-Glo Max luminescence raw signal per well.
Where [2] appears, read: LOPAC single-point screen, Z-score from plate average and StDev.
Where [3] appears, read: LOPAC single-point screen, ADP-Glo Max raw signal per well.
Where [4] appears, read: LOPAC single-point screen, Z-score against plate average and StDev.
[5] abbreviates: LOPAC single-point screen, Z-score from raw signal with plate average and StDev.
[6] abbreviates: Sigma LOPAC single-point screen, ADP-Glo Max raw signal per well.
Setting [7] is: Sigma LOPAC single-point screen, Z-score from plate average and StDev.
Where [8] appears, read: LOPAC single-point screen, Z-score relative to plate average and StDev.

T1 sequence (Q92551 whole entry): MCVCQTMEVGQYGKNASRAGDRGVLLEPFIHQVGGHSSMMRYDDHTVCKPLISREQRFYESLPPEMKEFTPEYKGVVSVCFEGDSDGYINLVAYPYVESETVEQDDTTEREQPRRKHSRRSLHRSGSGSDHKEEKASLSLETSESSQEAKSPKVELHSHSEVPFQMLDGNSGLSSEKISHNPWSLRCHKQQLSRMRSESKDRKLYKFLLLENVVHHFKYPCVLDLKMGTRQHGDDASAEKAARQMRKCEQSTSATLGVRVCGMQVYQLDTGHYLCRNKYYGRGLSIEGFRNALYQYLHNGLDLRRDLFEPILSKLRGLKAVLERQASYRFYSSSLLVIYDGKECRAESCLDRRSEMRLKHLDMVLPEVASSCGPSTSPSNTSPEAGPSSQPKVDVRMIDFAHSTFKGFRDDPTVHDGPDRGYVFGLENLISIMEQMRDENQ

Turning to JL-18, under setting [1], the “Raw Signal” value came to 64215. This molecule displayed a Z-score under setting [2] of 1.65.
In the case of `Nc1nc(Cl)nc2c1ncn2C1OC(CO)C(O)C1O` (stereo not shown) [2-Chloroadenosine], the “Raw Signal” value under setting [3] amounted to 58125. In addition, the Z-score under setting [4] turned out to be 0.03732.
As to `C[C@]12CC[C@@H]3c4ccc(O)cc4CC[C@H]3[C@@H]1CCC2=O` [Estrone], under setting [3], the “Raw Signal” value amounted to 53604. This molecule also returned a Z-score under setting [5] of -0.3174.
The like results for `Br.COc1ccc2c(c1)[C@]13CCCC[C@@H]1[C@H](C2)N(C)CC3.O` were, in that order, 54296 and -0.1769.
For the molecule `[Cl-].[Li+]` [Lithium Chloride], the “Raw Signal” value under setting [6] was found to be 59222. Under setting [7], the Z-score stood at 0.8235.
Regarding `CN1[C@@H]2CC[C@H]1C[C@@H](OC(=O)c1cc(Cl)cc(Cl)c1)C2` [3-Tropanyl-3,5-dichlorobenzoate], under setting [3], the “Raw Signal” value is listed as 53877. The Z-score under setting [5] was -0.4171.
For the molecule `COc1cc2c(CCNC(C)=O)c[nH]c2cc1O` [6-Hydroxymelatonin], under setting [1], the “Raw Signal” value is listed as 52038. Under setting [8], this molecule returned a Z-score of -0.6355.
`CC(C)C[C@H](NC(=O)[C@@H](O)[C@H](N)Cc1ccccc1)C(=O)O` [Bestatin hydrochloride]: under setting [3], the “Raw Signal” value is reported as 54023. Moreover, under setting [5], the Z-score is recorded as -0.2323.
For the molecule `O=C(O)CCCCC1CCSS1` (racemic) [(±)-alpha-Lipoic Acid], the “Raw Signal” value under setting [6] is recorded as 59328. The Z-score under setting [7] came to 0.6419.
Consider `COCC(=O)O[C@]1(CCN(C)CCCc2nc3ccccc3[nH]2)CCc2cc(F)ccc2[C@@H]1C(C)C` [Mibefradil dihydrochloride], for which the “Raw Signal” value under setting [1] is listed as 48952. Moreover, under setting [8], the Z-score is listed as -0.9143.
On to `COc1ccc2c(c1)CC[C@@H]1[C@@H]2CC[C@]2(C)[C@@H](NCCCCCCN3C(=O)C=CC3=O)CC[C@@H]12` [U-73122], for which the “Raw Signal” value under setting [3] is given as 55186. In addition, the Z-score under setting [5] is given as -0.1628.
In the case of `CN(C)CCC=C1c2ccccc2CCc2ccccc21` [Amitriptyline hydrochloride], under setting [1], the “Raw Signal” value was 54808. For the same molecule, the Z-score under setting [8] was -0.5469.
`NCC(O)(CS(=O)(=O)O)c1ccc(Cl)cc1` (stereo not shown) [2-Hydroxysaclofen]: the “Raw Signal” value under setting [6] is listed as 61124. The Z-score under setting [7] is reported as 0.5655.
The like results for `CN1CCN(CCCN2c3ccccc3Sc3ccc(C(F)(F)F)cc32)CC1` [Trifluoperazine dihydrochloride] were, in that order, 58037 and 0.3911.
With `C[C@]12CCC(=O)C=C1CC[C@@H]1[C@@H]2[C@@H](O)C[C@@]2(C)[C@H]1CC[C@]2(O)C(=O)CO` [Hydrocortisone], the “Raw Signal” value under setting [3] was found to be 54144. Further, the Z-score under setting [5] is listed as -0.2078.
As to `C[C@]12CCC(=O)C=C1CC[C@@H]1[C@@H]2C(=O)C[C@@]2(C)[C@H]1CC[C@]2(O)C(=O)CO` [Cortisone], the “Raw Signal” value under setting [6] came to 65066. Under setting [7], this molecule registered a Z-score of 1.26.
On to `O=C(O)CCC(=O)N1CCC[C@H]1C(=O)O` [N-Succinyl-L-proline], for which the “Raw Signal” value under setting [3] is recorded as 55499. The molecule further showed a Z-score under setting [5] of -0.102.
As to `N[C@@H](Cc1c[nH]c2ccc(O)cc12)C(=O)O` [5-Hydroxy-L-tryptophan], the “Raw Signal” value under setting [6] is 60622. The molecule also registered a Z-score under setting [7] of 1.108.
For `COc1ccc2[nH]cc(CCN(C)C)c2c1.O=C(O)C(=O)O` [5-Methoxy DMT oxalate] the same measures were 59658 and 0.8846.
`CC(=O)[C@H]1CC[C@H]2[C@@H]3CC=C4C[C@@H](OS(=O)(=O)[O-])CC[C@]4(C)[C@H]3CC[C@]12C.[Na+]` [Pregnenolone sulfate sodium]: the “Raw Signal” value under setting [1] is on record as 62981. Moreover, the Z-score under setting [2] stood at 1.352.
The like results for `C[N+]1(C)C2CCC1CC(OC(=O)c1c[nH]c3ccccc13)C2.[I-]` (stereo not shown) were, in that order, 66909 and 2.115.
For the molecule `C=CCc1ccccc1OCC(O)CNC1(C)CCC(C(C)(C)NC(=O)CBr)CC1` (stereo not shown) [Bromoacetyl alprenolol menthane], the “Raw Signal” value under setting [3] amounted to 55252. The Z-score under setting [5] is given as -0.4687.
Regarding `C[C@]12CC[C@@H](O)C[C@@H]1CC[C@@H]1[C@@H]2CC[C@]2(C)[C@@H](C(=O)CO)CC[C@@H]12`, the “Raw Signal” value under setting [3] is 54259. The same molecule yielded a Z-score under setting [4] of -0.0226.
As for `CC(=O)O[C@H]1C(=O)[C@@]2(C)[C@H]([C@H](OC(=O)c3ccccc3)[C@]3(O)C[C@H](OC(=O)[C@H](O)[C@@H](NC(=O)c4ccccc4)c4ccccc4)C(C)=C1C3(C)C)[C@]1(OC(C)=O)CO[C@@H]1C[C@@H]2O` [Taxol], the “Raw Signal” value under setting [6] is 58493. Under setting [7], the Z-score was found to be 0.4797.
With `O=[N+]([O-])c1cccc2cn[nH]c12` [7-Nitroindazole], the “Raw Signal” value under setting [3] is reported as 55532. This molecule also came in with a Z-score under setting [4] of 0.1913.
With `Cl.Nc1cc(Cl)c(N=C2NCCN2)c(Cl)c1` [p-Aminoclonidine hydrochloride], under setting [3], the “Raw Signal” value was 56073. This molecule also had a Z-score under setting [5] of -0.3241.
Take `OC[C@H]1O[C@@H](n2cnc3c(NC4CCCCC4)ncnc32)[C@H](O)[C@@H]1O` [N6-Cyclohexyladenosine]: the “Raw Signal” value under setting [6] is given as 60438. This molecule also returned a Z-score under setting [7] of 1.07.
Turning to `Cc1c2ccncc2c(C)c2c1[nH]c1ccccc12` [Ellipticine], the “Raw Signal” value under setting [1] is 50782. The molecule also returned a Z-score under setting [8] of -0.8906.
`O=C(C1CCCCC1)N1CC(=O)N2CCc3ccccc3C2C1` (stereo not shown) [Praziquantel]: the “Raw Signal” value under setting [3] worked out at 53749. The Z-score under setting [5] is reported as -0.1083.
The like results for `CN(C)CCCN1c2ccccc2CCc2ccccc21` [Imipramine hydrochloride] were, in that order, 53704 and -0.1159.
The like results for `Cc1cn([C@H]2C=C[C@@H](CO)O2)c(=O)[nH]c1=O` [2 ,3 -didehydro-3 -deoxythymidine] were, in that order, 54462 and -0.1432.
Turning to `C=CC[N+](C)(C)c1ccc(CCC(=O)CCc2ccc([N+](C)(C)CC=C)cc2)cc1.[Br-].[Br-]` [BW 284c51], under setting [3], the “Raw Signal” value was 57519. The same molecule registered a Z-score under setting [4] of -0.06941.
Regarding `CN[C@@H]1C[C@@H](c2ccc(Cl)c(Cl)c2)c2ccccc21` [Indatraline hydrochloride], the “Raw Signal” value under setting [3] is reported as 53926. In addition, the Z-score under setting [4] is recorded as -0.07855.
As to `COc1ccc2c(c1OC)C(=O)OC2C1c2cc3c(cc2CCN1C)OCO3` (single isomer, unassigned; (+)) [(+)-Hydrastine], the “Raw Signal” value under setting [3] is on record as 55977. Under setting [4], this molecule had a Z-score of 0.1645.
Turning to `NS(=O)(=O)c1cccc2c1c([N+](=O)[O-])cc1nc([O-])c([O-])nc12.[Na+].[Na+]` [NBQX disodium], under setting [3], the “Raw Signal” value is 52080. The molecule further displayed a Z-score under setting [5] of -0.3887.
With `COc1cc(C(O)CN)ccc1O.Cl` (racemic) [(±)-Normetanephrine hydrochloride], the “Raw Signal” value under setting [3] came to 54540. Under setting [4], the Z-score was 0.02461.
`NC(=O)CC[C@H](N)C(=O)O` [L-Glutamine]: under setting [6], the “Raw Signal” value was 57892. For the same molecule, the Z-score under setting [7] came out at 0.5534.
Regarding `CC[C@@H]1Cc2cc(O)ccc2C2=C1c1ccc(O)cc1C[C@H]2CC`, the “Raw Signal” value under setting [1] is 51869. This molecule also showed a Z-score under setting [8] of -0.6698.
